{"source": "patent US11028075B2", "about": "“Therapeutic compounds and methods of use thereof” (GENENTECH, INC., priority 2018, dated 2021)", "key": {"hNav1.7 [1]": {"target": "T1, hNav1.7 (Homo sapiens (Human), UniProt Q15858)", "experiment": "Tritiated compound binding to membranes from cells heterologously expressing hNav1.7 and the β1 subunit (Nav1.7 LBA)", "conditions": "competitive binding vs [3H]compound, membranes with hNav1.7 and β1 subunit; read-out: Nav1.7 LBA EVO IC50", "method": "Example 93A. Tritiated Compound Binding to Membranes Isolated from Cells that Heterologously Express hNav1.7 and the β1 Subunit\nPreparation of membranes containing recombinantly expressed sodium channels: Frozen recombinant cell pellets are thawed on ice and diluted to 4 times the cell pellet weight with ice cold 50 mM Tris HCl, pH 7.4 buffer. The cell suspensions are homogenized on ice using a motorized glass dounce homogeniser. Homogenates are further diluted 8.4 times with ice cold 50 mM Tris HCl, pH 7.4 buffer and then centrifuged at 200×g at 4° C. for 15 minutes. The supernatants are collected and centrifuged at 10000×g at 4° C. for 50 min. The pellets are then re-suspended in 100 mM NaCl, 20 mM Tris HCl, pH 7.4 buffer containing 1% v/v protease inhibitors (Calbiochem) and re-homogenized on ice. The homogenized membranes are then processed through a syringe equipped with a 26 gauge needle. Protein concentrations arer determined by Bradford Assay and the membranes are stored at −80° C.\nSaturation experiments. A competitive NaV1.7 inhibitor having a methyl group is tritiated. Three tritiums are incorporated in place of methyl hydrogens to generate [^3H]compound. Binding of this radioligand is performed in 5 mL borosilicate glass test tubes at room temperature. Binding is initiated by adding membranes to increasing concentrations of [^3H]compound in 100 mM NaCl, 20 mM Tris HCl, pH 7.4 buffer containing 0.01% w/v bovine serum albumin (BSA) for 18 h. Non-specific binding is determined in the presence of 1 μM unlabeled compound. After 18 h, the reactants are filtered through GF/C glass fiber filters presoaked in 0.5% w/v polyethylene imine. Filters are washed with 15 mL ice cold 100 mM NaCl, 20 mM Tris HCl, pH7.4 buffer containing 0.25% BSA to separate bound from free ligand. [^3H]compound bound to filters is quantified by liquid scintillation counting.\nBinding reactions are performed in 96-well polypropylene plates at room temperature for 18 h. In 360 μL, membranes are incubated with […] [^3H]compound and increasing concentrations of Test Compound. Non-specific binding is defined in the presence of 1 μM unlabeled compound. Reactions are transferred and filtered through 96-well glass fiber/C filter plates presoaked with 0.5% polyethylene imine. The filtered reactions are washed 5 times with 200 μL ice cold buffer containing 0.25% BSA. Bound radioactivity is determined by liquid scintillation counting.\nData Analysis: For saturation experiments, non-specific binding is subtracted from total binding to provide specific binding and these values are recalculated in terms of pmol ligand bound per mg protein. Saturation curves are constructed and dissociation constants are calculated using the single site ligand binding model: Beq=(Bmax*X)/(X+Kd), where Beq is the amount of ligand bound at equilibrium, Bmax is the maximum receptor density, Kd is the dissociation constant for the ligand, and X is the free ligand concentration. For competition studies percent inhibition is determined and IC50 values are calculated using a 4 parameter logistic model (% inhibition=(A+((B−A)/(1+((x/C)^D)))) using XLfit, where A and B are the maximal and minimum inhibition respectively, C is the IC50 concentration and D is the (Hill) slope.\nExample 93B. Tritiated Compound Binding to Membranes Isolated from Cells that Heterologous Express hNav1.7 and the β1 Subunit\nFollowing the procedure described in Example 93A, and making modifications as required to: centrifuge supernatants at 100000×g instead of 10000×g; re-suspend pellets in a buffer containing 0.01% BSA in addition to 100 mM NaCl, 20 mM Tris HCl, pH 7.4 buffer, and 1% v/v proteasome inhibitors; and storing membranes at −80° C. in single use aliquots instead of pooled. […]"}, "hNav1.7 [2]": {"target": "T1, hNav1.7", "experiment": "Electrophysiological assay (EP), voltage clamp on Syncropatch 384PE, CHO cells stably expressing Nav1.7", "type": "cell-based", "conditions": "holding potential −50 mV, 7.5 min compound incubation, read-out: EP_SP hNav1.7 EVO IC50", "from_the_text": "Example 93C. Electrophysiological Assay (EP) (In Vitro Assay)\nPatch voltage clamp electrophysiology allows for the direct measurement and quantification of block of voltage-gated sodium channels (NaV's), and allows the determination of the time- and voltage-dependence of block which has been interpreted as differential binding to the resting, open, and inactivated states of the sodium channel (Hille, B., Journal of General Physiology (1977), 69: 497-515).\nThe following voltage clamp electrophysiology studies are performed on representative compounds using cells heterologously expressing Nav1.7 or Nav1.5 channels. cDNAsfor Nav1.7 (NM_002977) and Nav1.5 (AC137587) are stably expressed in Chinese Hamstr Ovary (CHO) cells and CHL (Chinese Hamster Lung) cells respectively. Sodium currents are measured in the whole-cell configuration using Syncropatch 384PE (Nanlon Technologies, Germany). 1NPC®-384 chips with custom medium resistance and single hole mode are used. Internal solution consists of (in mM): […], 10 […], 20 EGTA, and 10 Hepes (pH adjusted to 7.2); and external solution contains (in mM): 60 NMDG, 80 NaCl, 4 KCl, 1 MgCl2, 2 CaCl2, 2 D-Glucose monohydrate, 10 Hepes (pH adjusted to 7.4 with NaOH).\nAfter system flushing, testing compounds are dissolved in external solution containing 0.1% Pluronic F-127. The chip is moved into the measuring head and the instrument primes the chip with external and internal solutions. 10 μl cells are added to the chip from a cell hotel, and a negative pressure of −50 mBar is applied to form a seal. Following treatment with seal enhancer solution and wash-off with external solution, negative pressure of −250 mbar is applied for 1 second to achieve the whole-cell configuration, followed by three washing steps in external solution. 20 μl of compounds is added to 40 μl in each well (1:3 dilution of compounds), and after mixing, 20 μl is removed so the volume is retained at 40 μl. After approximately 13 minutes recordings, 20 μl/well of 2 uM TTX, or 333 uM Tetracaine (for Nav1.5) is added to achieve full block.\nFor voltage protocol, an holding potential of −50 mV is applied during the whole experiment. A depolarizing step is applied to −10 mV for 10 ms, followed by a hyperpolarization step to −150 mV for 20 ms to allow channel recovery from inactivation. A second depolarizing step is applied from −150 mV to −10 mV for 10 ms, where currents are measured to derive blocking effects of compounds. Inhibition is determined based on 7.5 min of compound incubation."}}, "note": "Structures can show the parent of a compound that is named as a salt.", "data": [{"smiles": "O=S(=O)(Nc1ccncn1)c1cc(F)c(N[C@H]2CC[C@H](c3cccc(C(F)(F)F)c3)C[C@@H]2N2CCCC2)cc1F", "note": "[Example 23, 2,5-difluoro-N-(pyrimidin-4-yl)-4-(((1S,2S,4S)-2-(pyrrolidin-1-yl)-4-(3-(trifluoromethyl)-phenyl)cyclohexyl)amino)benzenesulfonamide formate]", "values": [{"measurement": "IC50", "setting": "hNav1.7 [1]", "value": 1.21, "unit": "nM"}, {"measurement": "IC50", "setting": "hNav1.7 [2]", "value": 1.63, "unit": "nM"}]}, {"smiles": "CN(C)[C@H]1C[C@@H](c2cc(Cl)cc(C(F)(F)F)c2)CC[C@@H]1Nc1cc(F)c(S(=O)(=O)Nc2ccncn2)cc1Cl", "note": "[Example 24, 5-chloro-4-(((1S,2S,4S)-4-(3-chloro-5-(trifluoromethyl)phenyl)-2-(dimethylamino)cyclohexyl)-amino)-2-fluoro-N-(pyrimidin-4-yl)benzenesulfonamide]", "values": [{"measurement": "IC50", "setting": "hNav1.7 [1]", "value": 0.583, "unit": "nM"}, {"measurement": "IC50", "setting": "hNav1.7 [2]", "value": 0.383, "unit": "nM"}]}, {"smiles": "CN(C)[C@H]1C[C@@H](c2cc(F)cc(Cl)c2)CC[C@@H]1Nc1cc(F)c(S(=O)(=O)Nc2ccncn2)cc1Cl", "note": "[Example 25, 5-chloro-4-(((1S,2S,4S)-4-(3-chloro-5-fluorophenyl)-2-(dimethylamino)cyclohexyl)amino)-2-fluoro-N-(pyrimidin-4-yl)benzenesulfonamide]", "values": [{"measurement": "IC50", "setting": "hNav1.7 [1]", "value": 3.02, "unit": "nM"}, {"measurement": "IC50", "setting": "hNav1.7 [2]", "value": 2.31, "unit": "nM"}]}, {"smiles": "CN(C)[C@H]1C[C@@H](c2cccc(F)c2)CC[C@@H]1Nc1cc(F)c(S(=O)(=O)Nc2ccncn2)cc1Cl", "note": "[Example 26, 5-Chloro-4-(((1S,2S,4S)-2-(dimethylamino)-4-(3-fluorophenyl)cyclohexyl)amino)-2-fluoro-N-(pyrimidin-4-yl)benzenesulfonamide formate]", "values": [{"measurement": "IC50", "setting": "hNav1.7 [1]", "value": 11.8, "unit": "nM"}, {"measurement": "IC50", "setting": "hNav1.7 [2]", "value": 2.97, "unit": "nM"}]}, {"smiles": "CN(C)[C@H]1C[C@@H](c2cccc(CC(F)(F)F)c2)CC[C@@H]1Nc1cc(F)c(S(=O)(=O)Nc2ccncn2)cc1Cl", "note": "[Example 27, 5-chloro-4-(((1S,2S,4S)-2-(dimethylamino)-4-(3-(2,2,2-trifluoroethyl)phenyl)cyclohexyl)-amino)-2-fluoro-N-(pyrimidin-4-yl)benzenesulfonamide]", "values": [{"measurement": "IC50", "setting": "hNav1.7 [1]", "value": 1.22, "unit": "nM"}, {"measurement": "IC50", "setting": "hNav1.7 [2]", "value": 1.33, "unit": "nM"}]}, {"smiles": "CN(C)CC(=O)N[C@H]1C[C@@H](c2cccc(C(F)(F)F)c2)CC[C@@H]1Nc1cc(F)c(S(=O)(=O)Nc2ccncn2)cc1Cl", "note": "[Example 28, N-((1S,2S,5S)-2-((2-chloro-5-fluoro-4-(N-(pyrimidin-4-yl)sulfamoyl)phenyl)amino)-5-(3-(trifluoromethyl)phenyl)cyclohexyl)-2-(dimethylamino)acetamide]", "values": [{"measurement": "IC50", "setting": "hNav1.7 [1]", "value": 84, "unit": "nM"}, {"measurement": "IC50", "setting": "hNav1.7 [2]", "value": 36.3, "unit": "nM"}]}, {"smiles": "CN(C)CC(=O)N(C)[C@H]1C[C@@H](c2cccc(C(F)(F)F)c2)CC[C@@H]1Nc1cc(F)c(S(=O)(=O)Nc2ccncn2)cc1Cl", "note": "[Example 29, N-((1S,2S,5S)-2-((2-chloro-5-fluoro-4-(N-(pyrimidin-4-yl)sulfamoyl)phenyl)amino)-5-(3-(trifluoromethyl)phenyl)cyclohexyl)-2-(dimethylamino)-N-methylacetamide formate]", "values": [{"measurement": "IC50", "setting": "hNav1.7 [1]", "value": 3.56, "unit": "nM"}, {"measurement": "IC50", "setting": "hNav1.7 [2]", "value": 2.25, "unit": "nM"}]}, {"smiles": "CC(C)[C@H](N)C(=O)N[C@H]1C[C@@H](c2cccc(C(F)(F)F)c2)CC[C@@H]1Nc1cc(F)c(S(=O)(=O)Nc2ccncn2)cc1Cl", "note": "[Example 30, (S)-2-Amino-N-((1S,2S,5S)-2-((2-chloro-5-fluoro-4-(N-(pyrimidin-4-yl)sulfamoyl)-phenyl)amino)-5-(3-(trifluoromethyl)phenyl)cyclohexyl)-3-methylbutanamide formate]", "values": [{"measurement": "IC50", "setting": "hNav1.7 [1]", "value": 37.5, "unit": "nM"}, {"measurement": "IC50", "setting": "hNav1.7 [2]", "value": 28.4, "unit": "nM"}]}, {"smiles": "CC(C)[C@H](N)C(=O)N(C)[C@H]1C[C@@H](c2cccc(C(F)(F)F)c2)CC[C@@H]1Nc1cc(F)c(S(=O)(=O)Nc2ccncn2)cc1Cl", "note": "[Example 31, (S)-2-amino-N-((1S,2S,5S)-2-((2-chloro-5-fluoro-4-(N-(pyrimidin-4-yl)sulfamoyl)-phenyl)amino)-5-(3-(trifluoromethyl)phenyl)cyclohexyl)-N,3-dimethylbutanamide formate]", "values": [{"measurement": "IC50", "setting": "hNav1.7 [1]", "value": 2.78, "unit": "nM"}, {"measurement": "IC50", "setting": "hNav1.7 [2]", "value": 0.462, "unit": "nM"}]}, {"smiles": "CN(C)[C@H]1C[C@@H](c2cccc(C(C)(F)F)c2)CC[C@@H]1Nc1cc(F)c(S(=O)(=O)Nc2ccncn2)cc1Cl", "note": "[Example 32, 5-chloro-4-(((1S,2S,4S)-4-(3-(1,1-difluoroethyl)phenyl)-2-(dimethylamino)-cyclohexyl)-amino)-2-fluoro-N-(pyrimidin-4-yl)benzenesulfonamide]", "values": [{"measurement": "IC50", "setting": "hNav1.7 [1]", "value": 2.04, "unit": "nM"}, {"measurement": "IC50", "setting": "hNav1.7 [2]", "value": 1.6, "unit": "nM"}]}, {"smiles": "CN1CC[C@H](C(=O)N(C)[C@H]2C[C@@H](c3cccc(C(F)(F)F)c3)CC[C@@H]2Nc2cc(F)c(S(=O)(=O)Nc3ccncn3)cc2Cl)C1", "note": "[Example 33, (S)—N-((1S,2S,5S)-2-((2-chloro-5-fluoro-4-(N-(pyrimidin-4-yl)sulfamoyl)phenyl)amino)-5-(3-(trifluoromethyl)phenyl)cyclohexyl)-N,1-dimethylpyrrolidine-3-carboxamide]", "values": [{"measurement": "IC50", "setting": "hNav1.7 [1]", "value": 2.45, "unit": "nM"}, {"measurement": "IC50", "setting": "hNav1.7 [2]", "value": 0.629, "unit": "nM"}]}, {"smiles": "CN1CC[C@@H](C(=O)N(C)[C@H]2C[C@@H](c3cccc(C(F)(F)F)c3)CC[C@@H]2Nc2cc(F)c(S(=O)(=O)Nc3ccncn3)cc2Cl)C1", "note": "[Example 34, (R)—N-((1S,2S,5S)-2-((2-Chloro-5-fluoro-4-(N-(pyrimidin-4-yl)sulfamoyl)phenyl)amino)-5-(3-(trifluoromethyl)phenyl)cyclohexyl)-N,1-dimethylpyrrolidine-3-carboxamide]", "values": [{"measurement": "IC50", "setting": "hNav1.7 [1]", "value": 2.6, "unit": "nM"}, {"measurement": "IC50", "setting": "hNav1.7 [2]", "value": 0.672, "unit": "nM"}]}, {"smiles": "CN(C)[C@H]1C[C@@](O)(c2cccc(C(F)(F)F)c2)CC[C@@H]1Nc1cc(F)c(S(=O)(=O)Nc2ccncn2)cc1Cl", "note": "[Example 35, 5-chloro-4-(((1S,2S,4R)-2-(dimethylamino)-4-hydroxy-4-(3-(trifluoromethyl)phenyl)-cyclohexyl)amino)-2-fluoro-N-(pyrimidin-4-yl)benzenesulfonamide formate]", "values": [{"measurement": "IC50", "setting": "hNav1.7 [1]", "value": 3.95, "unit": "nM"}, {"measurement": "IC50", "setting": "hNav1.7 [2]", "value": 1.92, "unit": "nM"}]}]}
